Here are results for ten compounds from ChEMBL document CHEMBL1201862, “PubChem BioAssay data set” (2004).

Among the test systems are 786-0; OVCAR-8; RPMI-8226; UACC-62; MDA-MB-435; MDA-N; HCC 2998; OVCAR-3; UO-31; NCI-H23; Hs-578T; OVCAR-4; Malme-3M; TK-10; NCI-H522; SR; SF-295; LOX IMVI; SNB-75; NCI-H226.
Experiment in all cases: NCI tumour cell line growth inhibition, 48 h

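How tested: cells in 96-well plates exposed to compound for 48 hours at five concentrations. The concentration for 50% growth inhibition is given as GI50.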 Calls of active or inactive are those of the source. No stated cut-off is given here; in the data, active = GI50 up to about 1.1 µM and inactive = higher.

For `O=C1CCC(NC(=O)c2ccccc2)C(=O)N1` (stereo unspecified), the GI50 in the experiment with 786-0, in the experiment on OVCAR-8, in the experiment with RPMI-8226, with UACC-62, in the experiment on MDA-MB-435 and in the experiment with MDA-N was > 100 µM (inactive) in each case. Besides, the GI50 in the experiment on HCC 2998, with OVCAR-3, in the experiment with UO-31, in the experiment on NCI-H23, with Hs-578T and in the experiment with OVCAR-4 was > 100 µM (inactive) throughout. In addition, the GI50 with Malme-3M, in the experiment on TK-10, in the experiment with NCI-H522, in the experiment on SR, with SF-295 and with LOX IMVI was > 100 µM (inactive) in each case. Further, the GI50 in the experiment on SNB-75 and in the experiment on NCI-H226 was > 100 µM (inactive) each time.

`C/C(=N\NC(=S)N(C)CCN(C)C(=S)N/N=C(\C)c1ccccn1)c1ccccn1`: the GI50 in the experiment on 786-0 was > 100 µM (inactive); with OVCAR-8, 0.345 µM (active); in the experiment on RPMI-8226, 1.37 µM (inactive); in the experiment on UACC-62, 2.31 µM (inactive); in the experiment with MDA-MB-435, > 100 µM (inactive); in the experiment on MDA-N, 3.71 µM (inactive). Besides, the GI50 is 10.4 µM (inactive) in the experiment on HCC 2998; 0.174 µM (active) with OVCAR-3; 0.791 µM (active) in the experiment on UO-31; 4.38 µM (inactive) in the experiment with NCI-H23; 25.9 µM (inactive) with Hs-578T; 0.298 µM (active) in the experiment on OVCAR-4. In addition, the GI50 in the experiment with Malme-3M is 0.826 µM (active); in the experiment with TK-10, 0.47 µM (active); in the experiment on NCI-H522, 0.731 µM (active); with SR, 0.697 µM (active); in the experiment with SF-295, 0.805 µM (active); with LOX IMVI it was 0.811 µM (active). Besides, the GI50 in the experiment on SNB-75 was 0.56 µM (active); in the experiment with NCI-H226, 0.316 µM (active).

Consider `O=C1c2ccccc2CC12Cc1cc3c(cc1C2)CCC3`, for which the GI50 in the experiment on 786-0 is 94.4 µM (inactive); in the experiment with OVCAR-8, > 100 µM (inactive); in the experiment with RPMI-8226 it was 32 µM (inactive); in the experiment with MDA-MB-435 it was 34 µM (inactive); in the experiment with MDA-N, 37.5 µM (inactive); in the experiment on HCC 2998, 57.5 µM (inactive). In addition, the GI50 is 31.6 µM (inactive) with OVCAR-3; 69.3 µM (inactive) in the experiment on UO-31; > 100 µM (inactive) in the experiment with NCI-H23; > 100 µM (inactive) in the experiment with Hs-578T; > 100 µM (inactive) in the experiment with OVCAR-4; 22.7 µM (inactive) with Malme-3M. Also, the GI50 in the experiment on TK-10 is > 100 µM (inactive); with NCI-H522, 30.5 µM (inactive); in the experiment on SR, 16.7 µM (inactive); in the experiment with SF-295, > 100 µM (inactive); in the experiment on LOX IMVI it was 57.1 µM (inactive); with SNB-75, 33.3 µM (inactive). For the same compound, the GI50 in the experiment with NCI-H226 is 15.9 µM (inactive).

With `COc1ccc2nc3c([N+](=O)[O-])ccc4c3c(c2c1)N=CN4CCCN(C)C`, the GI50 in the experiment with 786-0 is 0.614 µM (active); with OVCAR-8, 1.3 µM (inactive); with RPMI-8226, 0.318 µM (active); with UACC-62, 6.24 µM (inactive); in the experiment with MDA-MB-435, 2.54 µM (inactive); in the experiment on MDA-N, 4.62 µM (inactive). For the same compound, the GI50 in the experiment with HCC 2998 was 1.37 µM (inactive); in the experiment on OVCAR-3, 2.91 µM (inactive); in the experiment with UO-31 it was 2.38 µM (inactive); in the experiment on NCI-H23, 4.27 µM (inactive); in the experiment on Hs-578T, 7.28 µM (inactive); in the experiment on OVCAR-4, 1.65 µM (inactive). Moreover, the GI50 in the experiment on Malme-3M was 6.3 µM (inactive); in the experiment with TK-10 it was 1.45 µM (inactive); with NCI-H522, 1.34 µM (inactive); in the experiment with SR it was 0.125 µM (active); in the experiment with SF-295, 2.55 µM (inactive); in the experiment with LOX IMVI, 2.01 µM (inactive). The GI50 with SNB-75 was 2.67 µM (inactive); in the experiment with NCI-H226, 7.18 µM (inactive).

On to `Cc1cc(C)n(C(=O)C(C)Sc2nnc(SC(C)C(=O)n3nc(C)cc3C)s2)n1` (stereo unspecified), for which the GI50 in the experiment with 786-0, in the experiment with OVCAR-8, in the experiment on RPMI-8226, in the experiment with UACC-62, in the experiment with MDA-MB-435 and with MDA-N was > 100 µM (inactive) throughout. For the same compound, the GI50 in the experiment on HCC 2998, with OVCAR-3, in the experiment on UO-31, in the experiment on NCI-H23, in the experiment with Hs-578T and in the experiment on OVCAR-4 was > 100 µM (inactive) each time. Further, the GI50 in the experiment with Malme-3M, with TK-10, in the experiment with SR, with SF-295, with LOX IMVI and in the experiment on SNB-75 was > 100 µM (inactive) throughout. In addition, in the experiment with NCI-H226, the GI50 is > 100 µM (inactive).

With `O=[N+]([O-])c1ccc(-c2cn(-c3ccc(Cl)cc3)cn2)cc1`, the GI50 was 16.6 µM (inactive) with 786-0; 36.6 µM (inactive) in the experiment with OVCAR-8; 89.5 µM (inactive) with RPMI-8226; 92 µM (inactive) in the experiment on UACC-62; > 100 µM (inactive) with MDA-MB-435; > 100 µM (inactive) in the experiment on MDA-N. Further, the GI50 in the experiment with HCC 2998 is > 100 µM (inactive); in the experiment on OVCAR-3 it was 19.1 µM (inactive); with UO-31, 45 µM (inactive); with NCI-H23, 20.4 µM (inactive); with Hs-578T, 41.6 µM (inactive); in the experiment on Malme-3M, > 100 µM (inactive). Further, the GI50 with TK-10 was 40.3 µM (inactive); with NCI-H522, 3.76 µM (inactive); in the experiment with SR it was > 100 µM (inactive); in the experiment on SF-295, 18.7 µM (inactive); in the experiment on LOX IMVI, 56.4 µM (inactive); in the experiment on SNB-75, 8.57 µM (inactive). Further, the GI50 in the experiment with NCI-H226 is 48.5 µM (inactive).

With `C=C1CC(C)(COc2ccc3ccc(=O)oc3c2)OC1=O` (stereo unspecified), the GI50 in the experiment on 786-0 was 1.42 µM (inactive); in the experiment with OVCAR-8 it was 4.72 µM (inactive); in the experiment on RPMI-8226 it was 0.757 µM (active); in the experiment on UACC-62, 2.94 µM (inactive); in the experiment on MDA-MB-435, 2.12 µM (inactive); in the experiment on MDA-N, 0.951 µM (active). The GI50 in the experiment with HCC 2998 is 2.18 µM (inactive); in the experiment with OVCAR-3 it was 3.72 µM (inactive); in the experiment with UO-31, 15.8 µM (inactive); in the experiment with NCI-H23 it was 2.29 µM (inactive); with Hs-578T it was 4.91 µM (inactive); with OVCAR-4, 2.84 µM (inactive). The GI50 with Malme-3M was 1.01 µM (active); in the experiment on TK-10, 1.58 µM (inactive); with NCI-H522, 0.733 µM (active); in the experiment on SR it was 1.08 µM (active); in the experiment with SF-295, 5.68 µM (inactive); in the experiment with LOX IMVI it was 1.35 µM (inactive). Besides, the values for the GI50 in the experiment with SNB-75 and in the experiment on NCI-H226 were 9.57 µM (inactive) and 11.4 µM (inactive), respectively.

`C=C1C(=O)O[C@@]23C1CC[C@@H](C)C2CC[C@@]1(C)OC31` (stereo partly specified): the GI50 with 786-0 is 5.71 µM (inactive); with OVCAR-8 it was 16.9 µM (inactive); with RPMI-8226 it was 2.9 µM (inactive); in the experiment with UACC-62, 12.1 µM (inactive); in the experiment on MDA-MB-435, 4.25 µM (inactive); with MDA-N, 5.09 µM (inactive). Besides, the GI50 in the experiment on HCC 2998 is 4.9 µM (inactive); with OVCAR-3, 3.27 µM (inactive); with UO-31, 5.69 µM (inactive); in the experiment with NCI-H23, 7.18 µM (inactive); in the experiment on Hs-578T, 16 µM (inactive); in the experiment on OVCAR-4, 8.91 µM (inactive). Moreover, the GI50 in the experiment on Malme-3M is 2.08 µM (inactive); in the experiment with TK-10, 4.12 µM (inactive); in the experiment with NCI-H522 it was 6.32 µM (inactive); in the experiment with SR it was 3.71 µM (inactive); in the experiment on SF-295 it was 18.2 µM (inactive); with LOX IMVI it was 11.5 µM (inactive). The GI50 in the experiment with SNB-75 is 3.13 µM (inactive); with NCI-H226 it was 23.9 µM (inactive).

Regarding `Cc1cc(N(CCC#N)CCC#N)ccc1C(/N=N/c1ccc(Cl)cc1)=N\NC(=O)c1ccccc1`, the GI50 is 34.6 µM (inactive) in the experiment with 786-0; 42.1 µM (inactive) with OVCAR-8; 54.2 µM (inactive) with RPMI-8226; 29.8 µM (inactive) with UACC-62; 5.62 µM (inactive) with MDA-MB-435; 5.21 µM (inactive) in the experiment with MDA-N. Further, the GI50 in the experiment with HCC 2998 is 31 µM (inactive); in the experiment on OVCAR-3, 42.1 µM (inactive); in the experiment with UO-31, 67.6 µM (inactive); in the experiment on NCI-H23, 33.7 µM (inactive); with Hs-578T, 17 µM (inactive); in the experiment on OVCAR-4, 47.8 µM (inactive). For the same compound, the GI50 was 20.4 µM (inactive) in the experiment on Malme-3M; 60.5 µM (inactive) with TK-10; 18.4 µM (inactive) with NCI-H522; 9.59 µM (inactive) in the experiment with SR; 9.23 µM (inactive) in the experiment with SF-295; 49.5 µM (inactive) in the experiment on SNB-75. For the same compound, the GI50 in the experiment on NCI-H226 is 31.3 µM (inactive).

Regarding `O=C1CC(Sc2nc3ccc(I)cc3c(=O)n2Cc2ccccc2)C(=O)NN1` (stereo unspecified), the GI50 was 15.1 µM (inactive) in the experiment with 786-0; 14.4 µM (inactive) in the experiment with OVCAR-8; 17 µM (inactive) with RPMI-8226; 15.3 µM (inactive) with UACC-62; 17.7 µM (inactive) in the experiment on MDA-MB-435; 18 µM (inactive) with MDA-N. Moreover, the GI50 in the experiment on HCC 2998 was 17.6 µM (inactive); in the experiment on OVCAR-3, 16 µM (inactive); with UO-31, 0.55 µM (active); with NCI-H23 it was 15.7 µM (inactive); with Hs-578T it was 18.5 µM (inactive); in the experiment with OVCAR-4, 17.4 µM (inactive). Besides, the GI50 in the experiment on Malme-3M was 18.1 µM (inactive); with TK-10 it was 16.8 µM (inactive); in the experiment with NCI-H522, 1.94 µM (inactive); in the experiment with SR it was 2.73 µM (inactive); with SF-295, 18.2 µM (inactive); in the experiment with LOX IMVI it was 3.18 µM (inactive). The figures for the GI50 with SNB-75 and in the experiment with NCI-H226 were 11.7 µM (inactive) and 5.89 µM (inactive), respectively.
